target: MAPK14 (human) (UniProt Q16539); assay: Inhibition of MAPK14 Kinase Activity
Sequence (Q16539 whole entry, looked up): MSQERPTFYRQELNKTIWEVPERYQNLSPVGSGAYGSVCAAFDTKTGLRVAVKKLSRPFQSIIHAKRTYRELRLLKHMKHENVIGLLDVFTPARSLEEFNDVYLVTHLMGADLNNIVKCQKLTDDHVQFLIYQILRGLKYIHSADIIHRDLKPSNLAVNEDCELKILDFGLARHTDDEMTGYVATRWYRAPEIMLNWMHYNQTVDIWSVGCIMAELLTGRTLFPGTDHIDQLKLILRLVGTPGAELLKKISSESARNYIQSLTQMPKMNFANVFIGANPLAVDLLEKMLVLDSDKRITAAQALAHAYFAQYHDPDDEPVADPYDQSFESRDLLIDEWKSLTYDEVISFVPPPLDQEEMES

IC50, ≤ 5 µM:
Cc1nc(-c2ccccc2)c(-c2ccc3nc(N)n(CC(C)C)c3c2)[nH]1
CC(C)(C)Cn1c(N)nc2ccc(-c3nc(-c4c(Cl)cccc4Cl)[nH]c3-c3ccccc3)cc21
Nc1nc2ccc(-c3[nH]c(-c4c(F)cccc4F)nc3-c3ccccc3)cc2n1Cc1ccccc1
CCCn1c(N)nc2ccc(-c3[nH]c(-c4c(F)cccc4F)nc3-c3ccccc3)cc21
CC(C)Cn1c(N)nc2ccc(-c3[nH]c(-c4c(F)cccc4C(F)(F)F)nc3-c3ccc(F)cc3F)cc21
CC(C)(C)Cn1c(N)nc2ccc(-c3[nH]c(-c4c(F)cccc4F)nc3-c3ccccc3)cc21
C[C@H](n1c(N)nc2ccc(-c3[nH]c(-c4c(F)cccc4Cl)nc3-c3ccccc3)cc21)C(C)(C)C
CC(C)Cn1c(N)nc2ccc(-c3[nH]c(C(C)(C)C)nc3-c3ccc(F)cc3F)cc21
CC(C)(C)Cn1cnc2ccc(-c3[nH]c(-c4c(F)cccc4F)nc3-c3ccccc3)cc21

Source: the Kinase Knowledgebase extract (Sharma et al. 2016)
